Common to all, as to assay: relative viability (nuclei count vs DMSO), 5 days (fraction); higher = more cells survive
Compound in assay [1]: CN[C@@H]1C[C@H]2O[C@@](C)([C@@H]1OC)n1c3ccccc3c3c4c(c5c6ccccc6n2c5c31)C(=O)NC4 [Staurosporine] + COc1cccc2cc(-c3nc([C@H]4CC[C@H](C(=O)O)CC4)n4ncnc(N)c34)[nH]c12 [OSI-027] (partner 0.5 µM)
An outline of the steps:
(§1)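 Values are medians from duplicate plates. Each reflects relative viability, defined as the nuclei count of treated wells over that of vehicle wells. Lung cancer cell lines in 1536-well plates were pin-tool dosed one day after seeding with one drug alone or with a fixed anchor-drug dose plus five library-drug doses (not always all listed) in √10 steps, then fixed, stained and imaged at 4× after 5 days.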

Compound in assay [2]: CC1=C(CC(=O)O)c2cc(F)ccc2/C1=C\c1ccc([S+](C)[O-])cc1 [Sulindac] + Cc1cc(Nc2cc(N3CCN(C)CC3)nc(Sc3ccc(NC(=O)C4CC4)cc3)n2)n[nH]1 [Tozasertib] (partner 0.1 µM)
The essentials:
as §1

Compound in assay [3]: O=c1[nH]cc(F)c(=O)[nH]1 [5-Fluorouracil] + CS(=O)(=O)N1CCN(Cc2cc3nc(-c4cccc5[nH]ncc45)nc(N4CCOCC4)c3s2)CC1 [Pictilisib] (partner 1 µM)
The essentials:
as §1

Compound in assay [4]: O=c1[nH]cc(F)c(=O)[nH]1 [5-Fluorouracil] + O=C(CCCCCCC(=O)Nc1ccccc1)NO [Vorinostat] (partner 1 µM)
An outline of the steps: as §1

We go through twelve cell lines from the supplement of paper PMC10307832.

Turning to LCLC-103H, the relative viability in assay [1] (first compound 0.005 µM) was 0.531; in assay [1] (first compound 0.01581 µM), 0.219; in assay [1] (first compound 0.05 µM), 0.168; in assay [1] (first compound 0.1581 µM) it was 0.194; in assay [1] (first compound 0.5 µM), 0.153; in assay [2] (first compound 0.08 µM) it was 0.439. For the same cell line, the relative viability in assay [2] (first compound 0.253 µM) was determined as 0.512; in assay [2] (first compound 0.8 µM) it was 0.508; in assay [2] (first compound 2.53 µM), 0.47; in assay [2] (first compound 8 µM), 0.48; in assay [3] (first compound 0.02 µM) it was 0.61; in assay [3] (first compound 0.2 µM), 0.598. In addition, the relative viability is 0.536 in assay [3] (first compound 0.6325 µM); 0.447 in assay [3] (first compound 2 µM); 0.808 in assay [4] (first compound 0.02 µM); 0.829 in assay [4] (first compound 0.2 µM); 0.673 in assay [4] (first compound 0.6325 µM); 0.469 in assay [4] (first compound 2 µM).
As to LK-2, the relative viability in assay [1] (first compound 0.005 µM) came to 0.256; in assay [1] (first compound 0.01581 µM), 0.158; in assay [1] (first compound 0.05 µM), 0.244; in assay [1] (first compound 0.1581 µM), 0.151; in assay [1] (first compound 0.5 µM), 0.111; in assay [2] (first compound 0.08 µM), 0.186. The relative viability turned out to be 0.178 in assay [2] (first compound 0.253 µM); 0.189 in assay [2] (first compound 8 µM); 0.635 in assay [3] (first compound 0.02 µM); 0.575 in assay [3] (first compound 0.2 µM); 0.374 in assay [3] (first compound 0.6325 µM); 0.452 in assay [3] (first compound 2 µM). Moreover, the relative viability in assay [4] (first compound 0.02 µM) came to 0.275; in assay [4] (first compound 0.2 µM), 0.3; in assay [4] (first compound 0.6325 µM) it was 0.303; in assay [4] (first compound 2 µM), 0.304.
For LOU-NH91, the relative viability in assay [1] (first compound 0.005 µM) was 0.767; in assay [1] (first compound 0.01581 µM) it was 0.571; in assay [1] (first compound 0.05 µM) it was 0.487; in assay [1] (first compound 0.1581 µM), 0.344; in assay [1] (first compound 0.5 µM), 0.213; in assay [2] (first compound 0.08 µM) it was 0.634. In addition, the relative viability in assay [2] (first compound 0.253 µM) turned out to be 0.662; in assay [2] (first compound 0.8 µM) it was 0.636; in assay [2] (first compound 2.53 µM), 0.636; in assay [2] (first compound 8 µM) it was 0.744; in assay [3] (first compound 0.02 µM) it was 0.512; in assay [3] (first compound 0.2 µM), 0.47. Further, the relative viability in assay [3] (first compound 0.6325 µM) was 0.388; in assay [3] (first compound 2 µM) it was 0.34; in assay [4] (first compound 0.02 µM) it was 0.937; in assay [4] (first compound 0.2 µM), 0.988; in assay [4] (first compound 0.6325 µM), 0.607; in assay [4] (first compound 2 µM), 0.35.
With NCI-H522, the relative viability in assay [1] (first compound 0.005 µM) was 0.814; in assay [1] (first compound 0.05 µM), 0.606; in assay [1] (first compound 0.1581 µM), 0.497; in assay [1] (first compound 0.5 µM) it was 0.538; in assay [2] (first compound 0.08 µM), 0.676; in assay [2] (first compound 0.253 µM) it was 0.643. In addition, the relative viability in assay [2] (first compound 0.8 µM) amounted to 0.541; in assay [2] (first compound 2.53 µM), 0.502; in assay [2] (first compound 8 µM), 0.575; in assay [4] (first compound 0.02 µM) it was 0.884; in assay [4] (first compound 0.2 µM) it was 1.02; in assay [4] (first compound 0.6325 µM), 0.982. In addition, the relative viability in assay [4] (first compound 2 µM) was determined as 0.81.
For NCI-H1299, the relative viability in assay [3] (first compound 0.02 µM) stood at 0.953; in assay [3] (first compound 0.2 µM) it was 0.634; in assay [3] (first compound 0.6325 µM) it was 0.474; in assay [3] (first compound 2 µM), 0.248.
On to NCI-H1563, for which the relative viability is 0.65 in assay [1] (first compound 0.005 µM); 0.573 in assay [1] (first compound 0.01581 µM); 0.562 in assay [1] (first compound 0.05 µM); 0.523 in assay [1] (first compound 0.1581 µM); 0.488 in assay [1] (first compound 0.5 µM); 0.662 in assay [3] (first compound 0.02 µM). Also, the relative viability was 0.601 in assay [3] (first compound 0.2 µM), 0.647 in assay [3] (first compound 0.6325 µM) and 0.671 in assay [3] (first compound 2 µM).
For NCI-H1623, the relative viability was 0.517 in assay [1] (first compound 0.005 µM); 0.542 in assay [1] (first compound 0.01581 µM); 0.547 in assay [1] (first compound 0.05 µM); 0.441 in assay [1] (first compound 0.1581 µM); 0.304 in assay [1] (first compound 0.5 µM); 0.392 in assay [2] (first compound 0.08 µM). The relative viability turned out to be 0.458 in assay [2] (first compound 0.253 µM), 0.421 in assay [2] (first compound 0.8 µM), 0.418 in assay [2] (first compound 2.53 µM) and 0.429 in assay [2] (first compound 8 µM).
Regarding NCI-H1648, the relative viability in assay [1] (first compound 0.005 µM) was 0.245; in assay [1] (first compound 0.01581 µM) it was 0.199; in assay [1] (first compound 0.05 µM), 0.207; in assay [1] (first compound 0.1581 µM), 0.293; in assay [1] (first compound 0.5 µM), 0.314; in assay [2] (first compound 0.08 µM), 0.397. Moreover, the relative viability in assay [2] (first compound 0.253 µM) is 0.482; in assay [2] (first compound 0.8 µM), 0.345; in assay [2] (first compound 2.53 µM) it was 0.415; in assay [2] (first compound 8 µM) it was 0.389; in assay [4] (first compound 0.02 µM), 0.482; in assay [4] (first compound 0.2 µM) it was 0.389. For the same cell line, the relative viability was found to be 0.495 in assay [4] (first compound 0.6325 µM) and 0.263 in assay [4] (first compound 2 µM).
With NCI-H1703, the relative viability in assay [3] (first compound 0.02 µM) is 0.283; in assay [3] (first compound 0.2 µM), 0.25; in assay [3] (first compound 0.6325 µM), 0.275; in assay [3] (first compound 2 µM) it was 0.24.
On to NCI-H1792, for which the relative viability in assay [1] (first compound 0.01581 µM) is 0.635; in assay [1] (first compound 0.05 µM), 0.347; in assay [1] (first compound 0.1581 µM), 0.282; in assay [1] (first compound 0.5 µM), 0.323; in assay [3] (first compound 0.02 µM) it was 0.337; in assay [3] (first compound 0.2 µM) it was 0.243. In addition, the relative viability is 0.113 in assay [3] (first compound 0.6325 µM) and 0.0763 in assay [3] (first compound 2 µM).
Turning to NCI-H2342, the relative viability came to 0.702 in assay [1] (first compound 0.005 µM); 0.482 in assay [1] (first compound 0.01581 µM); 0.438 in assay [1] (first compound 0.05 µM); 0.402 in assay [1] (first compound 0.1581 µM); 0.37 in assay [1] (first compound 0.5 µM); 0.447 in assay [2] (first compound 0.08 µM). The relative viability in assay [2] (first compound 0.253 µM) worked out at 0.492; in assay [2] (first compound 0.8 µM), 0.513; in assay [2] (first compound 2.53 µM), 0.397; in assay [2] (first compound 8 µM), 0.583; in assay [4] (first compound 0.02 µM) it was 0.903; in assay [4] (first compound 0.2 µM) it was 0.86. Further, the relative viability in assay [4] (first compound 0.6325 µM) stood at 0.741; in assay [4] (first compound 2 µM), 0.616.
Regarding SW 900, the relative viability in assay [1] (first compound 0.005 µM) was found to be 0.334; in assay [1] (first compound 0.01581 µM), 0.182; in assay [1] (first compound 0.05 µM) it was 0.204; in assay [1] (first compound 0.1581 µM), 0.108; in assay [1] (first compound 0.5 µM), 0.0798; in assay [2] (first compound 0.253 µM), 0.516. For the same cell line, the relative viability in assay [2] (first compound 2.53 µM) is 0.462; in assay [2] (first compound 8 µM) it was 0.585; in assay [4] (first compound 0.02 µM), 0.628; in assay [4] (first compound 0.2 µM), 0.575; in assay [4] (first compound 0.6325 µM), 0.562; in assay [4] (first compound 2 µM) it was 0.4.
